Test results: PMC7926675, “Rainbow Trout (Oncorhynchus mykiss) Na^+/H^+ Exchangers tNhe3a and tNhe3b Display Unique Inhibitory Profiles Dissimilar from Mammalian NHE Isoforms” (International Journal of Molecular Sciences, 2021)

How the values were obtained:
[1] = target: T1, tNhe3a (trout Na+/H+ exchanger Nhe3a) (Oncorhynchus mykiss, UniProt A4GWV2); test: two-pulse ammonium chloride acid-load pHi recovery assay (BCECF) in stably transfected AP-1 cells, background subtracted; type: cell-based
T1 construct: gene NHE3; GFP-tagged tNhe3a (cDNA identical to NM_001130995) stably expressed in NHE-deficient AP-1 cells
T1 sequence (A4GWV2 1-752): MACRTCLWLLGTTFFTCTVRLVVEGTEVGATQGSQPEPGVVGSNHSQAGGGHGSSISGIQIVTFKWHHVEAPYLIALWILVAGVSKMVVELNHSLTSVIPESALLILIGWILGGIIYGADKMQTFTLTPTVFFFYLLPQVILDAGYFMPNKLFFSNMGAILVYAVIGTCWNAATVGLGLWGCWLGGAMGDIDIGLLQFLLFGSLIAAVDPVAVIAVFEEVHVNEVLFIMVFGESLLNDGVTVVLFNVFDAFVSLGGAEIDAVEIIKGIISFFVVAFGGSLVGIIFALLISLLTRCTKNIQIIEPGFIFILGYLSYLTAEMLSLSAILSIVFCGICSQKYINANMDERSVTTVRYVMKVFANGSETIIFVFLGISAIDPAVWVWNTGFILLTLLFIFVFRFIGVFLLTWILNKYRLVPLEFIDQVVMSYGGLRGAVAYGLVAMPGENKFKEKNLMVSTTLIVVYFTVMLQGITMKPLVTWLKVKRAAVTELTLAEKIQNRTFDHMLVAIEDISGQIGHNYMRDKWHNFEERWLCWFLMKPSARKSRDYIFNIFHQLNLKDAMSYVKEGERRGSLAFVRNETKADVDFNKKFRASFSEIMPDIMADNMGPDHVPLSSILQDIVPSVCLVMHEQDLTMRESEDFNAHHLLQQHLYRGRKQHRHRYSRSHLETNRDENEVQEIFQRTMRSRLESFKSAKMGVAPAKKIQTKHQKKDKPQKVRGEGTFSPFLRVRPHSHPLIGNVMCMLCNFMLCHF

[2] = target: T2, tNhe3b (trout Na+/H+ exchanger Nhe3b) (Oncorhynchus mykiss, UniProt B6VDZ5); test: two-pulse ammonium chloride acid-load pHi recovery assay (BCECF) in stably transfected AP-1 cells; significant only at […]; type: cell-based
T2 construct: GFP-tagged tNhe3b (cDNA identical to FJ376630.1) stably expressed in NHE-deficient AP-1 cells
T2 sequence (B6VDZ5 1-842): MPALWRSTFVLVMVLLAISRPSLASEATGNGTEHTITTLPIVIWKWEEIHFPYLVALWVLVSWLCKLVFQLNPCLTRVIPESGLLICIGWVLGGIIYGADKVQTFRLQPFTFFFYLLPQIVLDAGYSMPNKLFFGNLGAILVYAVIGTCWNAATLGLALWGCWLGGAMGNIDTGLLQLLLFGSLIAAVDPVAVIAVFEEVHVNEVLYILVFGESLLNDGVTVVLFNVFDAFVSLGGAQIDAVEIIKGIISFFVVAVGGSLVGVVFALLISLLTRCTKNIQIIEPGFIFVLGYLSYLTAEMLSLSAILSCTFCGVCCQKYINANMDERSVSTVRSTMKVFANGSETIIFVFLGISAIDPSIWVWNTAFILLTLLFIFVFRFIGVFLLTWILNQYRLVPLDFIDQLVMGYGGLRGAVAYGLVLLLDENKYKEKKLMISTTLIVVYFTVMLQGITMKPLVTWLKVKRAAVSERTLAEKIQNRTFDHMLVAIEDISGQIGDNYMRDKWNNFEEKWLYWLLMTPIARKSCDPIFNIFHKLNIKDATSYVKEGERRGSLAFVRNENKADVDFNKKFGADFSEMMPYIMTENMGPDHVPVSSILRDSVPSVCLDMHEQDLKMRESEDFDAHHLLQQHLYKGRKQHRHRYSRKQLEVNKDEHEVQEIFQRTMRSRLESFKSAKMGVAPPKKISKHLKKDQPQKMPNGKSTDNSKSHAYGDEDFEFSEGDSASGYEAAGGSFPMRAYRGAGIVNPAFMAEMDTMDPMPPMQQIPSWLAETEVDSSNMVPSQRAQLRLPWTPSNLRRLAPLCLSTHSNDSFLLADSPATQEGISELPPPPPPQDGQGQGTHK

Row | Structure (SMILES) | IC50 [1] [µM] | IC50 [2] [µM]
1 | CCN(c1nc(N)c(C(=O)NC(=N)N)nc1Cl)C(C)C [EIPA] | ~44 | 
2 | N=C(N)NC(=O)c1nc(Cl)c(N)nc1N [amiloride, N-amidino-3,5-diamino-6-chloropyrazinecarboxamide] | ~9.3 | ~335
